Results: PMC7961763, “Semi-Synthesis of Harringtonolide Derivatives and Their Antiproliferative Activity” (Molecules, 2021)
Read-outs that look alike come from different tables or passages of the source.

Key:
[1] = tested on: A375 (human melanoma cancer cell line); test: MTT assay, cytotoxicity against A375; assay type: cell-based; settings: read-out: IC50 A375
Method: (§1) All the synthesized derivatives of HO were tested for their antiproliferative activity against four human cancer cell lines, including the HCT-116, A375, A-549, and Huh-7 cell lines, using the MTT assay. Cisplatin was used as a positive control, while lead compound HO (1) was also included in the study for comparison.
(§2) HCT-116 (Human colon cancer cell line), A375 (human melanoma cancer cell line), A-549 (human lung adenocarcinoma cell line), Huh-7 (human hepatoma cancer cell line), and L-02 (normal hepatic cell line) were purchased from the Cell Bank of Shanghai Institute of Biochemistry and Cell Biology, Chinese Academy of Sciences (Shanghai, China). The cells were cultured in Dulbecco’s modified Eagle medium (DMEM; NY, USA), which were all supplemented with 10% fetal bovine serum (FBS; NY, USA) at 37 °C with 5% CO2.
(§3) The cytotoxic activity was evaluated using the MTT assay. Briefly, cells were seeded in 96-well plates at a density of 5 × 10^3 cells/well in 100 μL of DMEM medium at 37 °C for 24 h. Stock solutions of test compounds were prepared in DMSO at concentration of 50 mM, and twofold serial dilution with a culture medium was performed to obtain appropriate concentrations right before the assay. After that, the cells were incubated with synthetic derivatives or cisplatin as a positive control at the various concentrations (0.78125-50 μM) for 48 h. Then, 20 μL of 3-(4,5-Dimethylthiazol-2-yl)-2,5-diphenyltetrazolium bromide (MTT, Aladdin, Shanghai, China) solution (5 mg/mL in PBS) was added, and then the cells were incubated at 37 °C for an additional 4 h. The supernatant was removed, and 150 μL of dimethyl sulfoxide was added to dissolve the MTT formazan. The optical density (OD) was measured on a microplate reader (SpectraMax Plus 384, Molecular Devices, Sunnyvale, CA, USA) at a wavelength of 570 nm. The cytotoxic activity was expressed as the IC50 values. The above tests were repeated three times in parallel. Vehicle DMSO (0.1%) was used as a negative control.

[2] = tested on: human normal hepatic L-02 cells; test: MTT assay, cytotoxicity on normal L-02 cells; assay type: cell-based; settings: for IC50: Homo sapiens, read-out: IC50 L-02; for SI (selectivity index): IC50 (L-02)/IC50 (Huh-7)
Method: The selectivity index is crucial for drug development, because it could mediate side effects, including tissues toxicity. Therefore, according to cytotoxic activity results, compounds 6 and 10 with potent cytotoxicity in Huh-7 cells were selected to investigate the selectivity between normal and cancer cells. These two compounds were tested on human normal hepatic L-02 cells with HO as control.
as §2, §3

[3] = tested on: A-549 (human lung adenocarcinoma cell line); test: MTT assay, cytotoxicity against A549; assay type: cell-based; settings: read-out: IC50 A549
Method: as §1, §2, §3

[4] = tested on: HCT-116 (human colon cancer cell line); test: MTT assay, cytotoxicity against HCT-116; assay type: cell-based; settings: read-out: IC50 HCT-116
Method: as §1, §2, §3

[5] = tested on: Huh-7 (human hepatoma cancer cell line); test: MTT assay, cytotoxicity against Huh-7; assay type: cell-based; settings: read-out: IC50 Huh-7
Method: as §1, §2, §3

[6] = parameters: method as in PMID 18523925, PMID 29182349, PMID 31184894; settings: compared with HO; cited from earlier work
[7] = L02, MTT, 48 h, normal hepatic L-02 cells

**Q.** With `Cc1cc(=O)cc2c3c1C1OC4C5OC(=O)C(CC2O)(C4C)C3C15` [Compound 10, (3R,4aR,9S,10aS,11S)-9-hydroxy-5,11-dimethyl-2a,3,4a,9,10,10a1-hexahydro-1H-2,4-dioxa-3,10a-methanocyclohepta[bc]cyclopenta[jk]acenaphthylene-1,7(2a1H)-dione] as the compound, how does the IC50 ([1]; MTT, 48 h, A375 cells) read?
**A.** Its IC50 is 5.79 ± 1.26 µM.

**Q.** And the IC50 [2, 7]?
**A.** The IC50 was 22.3 ± 1.11 µM.

**Q.** And the “SI (selectivity index)” value [2]?
**A.** The value was 3.5.

**Q.** What about the IC50 ([3]; MTT, 48 h, A549 cells) of the same compound?
**A.** The IC50 was 8.25 ± 0.2 µM.

**Q.** What about the IC50 ([4]; MTT, 48 h, HCT-116 cells) of the same compound?
**A.** Its IC50 is 2.29 ± 0.27 µM.

**Q.** What about the IC50 ([5]; MTT, 48 h, Huh-7 cells) of the same compound?
**A.** The IC50 was 6.34 ± 0.32 µM.

**Q.** For `Cc1cc(=O)cc2c3c1C1OC4C5OC(=O)C(C=C2)(C4C)C3C15` [Compound 6, (3R,4aR,10aS,11S)-5,11-dimethyl-2a,3,4a,10a1-tetrahydro-1H-2,4-dioxa-3,10a methanocyclohepta[bc]cyclopenta[jk]acenaphthylene-1,7(2a1H)-dione], which IC50 ([1]; Homo sapiens, A-375, 48 h, MTT, 48 h, A375 cells) is on record?
**A.** Its IC50 is 4.85 ± 0.42 µM.

**Q.** What about the IC50 [2, 7] of the same compound?
**A.** Its IC50 is 67.2 ± 0.43 µM.

**Q.** And the “SI (selectivity index)” value [2]?
**A.** Its value is 56.5.

**Q.** And the “selectivity index relative to HO” value ([2]; SI between Huh-7 and L-02, compared with HO)?
**A.** Its value is 20 times.

**Q.** And the IC50 ([3]; Homo sapiens, A549, 48 h, MTT, 48 h, A549 cells)?
**A.** Its IC50 is 5.47 ± 0.13 µM.

**Q.** And the IC50 ([4]; Homo sapiens, HCT-116, 48 h, MTT, 48 h, HCT-116 cells)?
**A.** Its IC50 is 0.86 ± 0.05 µM.

**Q.** What about the IC50 ([5]; Homo sapiens, Huh-7, 48 h, MTT, 48 h, Huh-7 cells) of the same compound?
**A.** The IC50 was 1.19 ± 0.08 µM.

**Q.** What does the source list for `Cc1cc(=O)cc2c3c1[C@@H]1O[C@H]4[C@@H]5OC(=O)[C@](CC2)([C@@H]4C)[C@H]3[C@@H]51` [HO (1), Harringtonolide]?
**A.** IC50 ([1]; Homo sapiens, A-375, 48 h): 1.34 ± 0.23 µM; IC50 ([2]; L02, 48 h): 3.46 ± 0.36 µM; SI (selectivity index) [2]: 2.8; IC50 ([3]; Homo sapiens, A549, 48 h): 1.67 ± 0.23 µM; IC50 ([4]; Homo sapiens, HCT-116, 48 h): 0.61 ± 0.03 µM; IC50 ([5]; Homo sapiens, Huh-7, 48 h): 1.25 ± 0.08 µM

**Q.** For `CC1=C[C@@H](O)[C@H](O)[C@@]2(O)CCC34C(=O)OC5C6C3C2=C1[C@@H]6O[C@@H]5C4C` (some centres unmarked) [fortalpinoid K], which “cytotoxic activities (result in words)” value [6] is on record?
**A.** The value was “losing of cytotoxic activities”.
